Data taken from PubChem BioAssay AID330 (DTP/NCI, 2004).
Values joined by “and” are separate entries in the source; they are usually repeats but may differ in a detail not shown here. Equal entries are not always repeated. Toxic doses and inconclusive results are not listed. Rule for the calls: active = survival T/C of 150% or more; inactive = T/C below 125% in these data.

System: P388 leukemia ip, CD2F1 mice, survival T/C
Test: NCI In Vivo Anticancer Drug Screen. Data for tumor model P388 Leukemia (intraperitoneal) in CD2F1 (CDF1) mice
Conditions: endpoint: median survival time, higher = longer survival
Outline: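 Mice carrying the transplanted tumor received test compound or vehicle. Survival was recorded in each group, and the value is the treated-group measurement divided by that of the vehicle-treated control group.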

[1] = dose: 6.25 mg/kg/injection, schedule: Q01DX009 (ip), vehicle: saline with Tween-80
[2] = dose: 12.5 mg/kg/injection, schedule: Q01DX009 (ip), vehicle: saline with Tween-80
[3] = dose: 25.0 mg/kg/injection, schedule: Q01DX009 (ip), vehicle: saline with Tween-80
[4] = dose: 100.0 mg/kg/injection, schedule: Q04DX003 (ip), vehicle: Klucel (hydroxypropylcellulose) (HPC)
[5] = dose: 200.0 mg/kg/injection, schedule: Q04DX003 (ip), vehicle: Klucel (hydroxypropylcellulose) (HPC)
[6] = dose: 400.0 mg/kg/injection, schedule: Q04DX003 (ip), vehicle: Klucel (hydroxypropylcellulose) (HPC)

Measured: T/C

CCCCCCCCSC1=C(Cl)C(=O)C(OC)=C(OC)C1=O
inactive: dose: 1.5 mg/kg/injection, schedule: Q04DX002 (ip), vehicle: saline with Tween-80 101 % of control | dose: 3.0 mg/kg/injection, schedule: Q04DX002 (ip), vehicle: saline with Tween-80 99 % of control | dose: 6.0 mg/kg/injection, schedule: Q04DX002 (ip), vehicle: saline with Tween-80 99 % of control | [1] 101 % of control | dose: 12.0 mg/kg/injection, schedule: Q04DX002 (ip), vehicle: saline with Tween-80 108 % of control | [2] 105 % of control | dose: 24.0 mg/kg/injection, schedule: Q04DX002 (ip), vehicle: saline with Tween-80 108 % of control | [3] 111 % of control | dose: 48.0 mg/kg/injection, schedule: Q04DX002 (ip), vehicle: saline with Tween-80 107 % of control

Cn1c(=O)c2c(N=NC(N)=S)c(O)[nH]c2n(C)c1=O
inactive: [4] 100 % of control | [5] 108 % of control | [6] 96 % of control

CCCCOC(=O)c1c2nc3c(C(=O)OCCCC)ccc(C)c3oc-2c(C)c(=O)c1NC(C)=O
inactive: [4] 87 % of control | [5] 90 % of control | [6] 89 % of control

CN1CC[CH2][Sn]([Cl])([Cl])[CH2]CC1
inactive: dose: 3.75 mg/kg/injection, schedule: Q01DX005 (ip), vehicle: saline with Tween-80 114 % of control | dose: 7.5 mg/kg/injection, schedule: Q01DX005 (ip), vehicle: saline with Tween-80 105 % of control

O=C(O)CCN(Cl)Cl
inactive: dose: 60.0 mg/kg/injection, schedule: Q01DX005 (ip), vehicle: saline 98 % of control | dose: 120.0 mg/kg/injection, schedule: Q01DX005 (ip), vehicle: saline 104 % of control | dose: 240.0 mg/kg/injection, schedule: Q01DX005 (ip), vehicle: saline 95 % of control

COC(=O)C1=C(\N2CCCC2)CC(C)(C)CC(=O)/C=C\1C(=O)OC
inactive: dose: 50.0 mg/kg/injection, schedule: Q01DX005 (ip), vehicle: Klucel (hydroxypropylcellulose) (HPC) 92 % of control | dose: 100.0 mg/kg/injection, schedule: Q01DX005 (ip), vehicle: Klucel (hydroxypropylcellulose) (HPC) 93 % of control | dose: 200.0 mg/kg/injection, schedule: Q01DX005 (ip), vehicle: Klucel (hydroxypropylcellulose) (HPC) 104 % of control

CN1C(=O)c2ccccc2CC12c1ccccc1C(=O)N2C (stereo not given)
inactive: dose: 12.5 mg/kg/injection, schedule: Q01DX005 (ip), vehicle: saline with Tween-80 94 % of control | dose: 25.0 mg/kg/injection, schedule: Q01DX005 (ip), vehicle: saline with Tween-80 90 % of control | dose: 50.0 mg/kg/injection, schedule: Q01DX005 (ip), vehicle: saline with Tween-80 108 % of control

CCOc1ccc(O)c(CN2CCN(Cc3cc(OCC)ccc3O)CC2)c1
inactive: dose: 15.0 mg/kg/injection, schedule: Q01DX005 (ip), vehicle: saline with Tween-80 100 % of control | dose: 30.0 mg/kg/injection, schedule: Q01DX005 (ip), vehicle: saline with Tween-80 100 % of control | dose: 60.0 mg/kg/injection, schedule: Q01DX005 (ip), vehicle: saline with Tween-80 98 % of control and 124 % of control

c1ccc2nc(-c3cnc4ccccc4n3)cnc2c1
inactive: dose: 100.0 mg/kg/injection, schedule: Q04DX002 (ip), vehicle: saline with Tween-80 95 % of control | dose: 200.0 mg/kg/injection, schedule: Q04DX002 (ip), vehicle: saline with Tween-80 90 % of control

COc1cc2ccc1-c1cc(ccc1O)CC1c3cc4c(cc3CCN1C)Oc1c(OC)cc3c(c1O4)C(C2)N(C)CC3 (stereo not given)
inactive: dose: 7.5 mg/kg/injection, schedule: Q01DX005 (ip), vehicle: Klucel (hydroxypropylcellulose) (HPC) 99 % of control | dose: 15.0 mg/kg/injection, schedule: Q01DX005 (ip), vehicle: Klucel (hydroxypropylcellulose) (HPC) 99 % of control | dose: 30.0 mg/kg/injection, schedule: Q01DX005 (ip), vehicle: Klucel (hydroxypropylcellulose) (HPC) 92 % of control | dose: 60.0 mg/kg/injection, schedule: Q01DX005 (ip), vehicle: Klucel (hydroxypropylcellulose) (HPC) 104 % of control

CC(=O)Nc1ccc2c(c1)Cc1ccccc1-2
inactive: dose: 100.0 mg/kg/injection, schedule: Q01DX009 (ip), vehicle: saline with Tween-80 100 % of control | dose: 200.0 mg/kg/injection, schedule: Q01DX009 (ip), vehicle: saline with Tween-80 95 % of control | dose: 400.0 mg/kg/injection, schedule: Q01DX009 (ip), vehicle: saline with Tween-80 95 % of control

Nc1ccc(N=O)c(N)n1
inactive: dose: 0.78 mg/kg/injection, schedule: Q01DX009 (ip), vehicle: saline 98 % of control | dose: 1.56 mg/kg/injection, schedule: Q01DX009 (ip), vehicle: saline 86 % of control | [1] 107 % of control | [2] 98 % of control | dose: 12.5 mg/kg/injection, schedule: Q01DX009 (ip), vehicle: saline 98 % of control | [3] 100 % of control | dose: 50.0 mg/kg/injection, schedule: Q01DX009 (ip), vehicle: saline 106 % of control
